Measured values reported in ChEMBL document CHEMBL1147399, “Two new sesquiterpene lactones from Ceiba pentandra” (1993).
In brackets after ≈: the same amount, converted by molar mass.

Experiments:
Format in all cases: functional
Escherichia coli = experiment: Antibacterial activity against Escherichia coli ATCC 10536
Bacillus subtilis = experiment: Antibacterial activity against Bacillus subtilis ATCC 6633
Aspergillus niger = experiment: Antifungal activity against Aspergillus niger NRRL 530
Klebsiella pneumoniae = experiment: Antibacterial activity against Klebsiella pneumoniae ATCC 13883
Candida albicans = experiment: Antifungal activity against Candida albicans ATCC 10231
Staphylococcus aureus = experiment: Antibacterial activity against Staphylococcus aureus ATCC 6538

MIC (Escherichia coli) | MIC (Bacillus subtilis) | MIC (Aspergillus niger) | MIC (Klebsiella pneumoniae) | MIC (Candida albicans) | MIC (Staphylococcus aureus) | SMILES
> 1000 µg/mL | 350 µg/mL (≈ 1290 µM) | 250 µg/mL (≈ 918 µM) | > 1000 µg/mL | 225 µg/mL (≈ 826 µM) | 300 µg/mL (≈ 1100 µM) | COc1cc(C(C)C)c2cc(C)c(O)c3c2c1C(=O)O3
> 1000 µg/mL | 250 µg/mL (≈ 873 µM) | 200 µg/mL (≈ 699 µM) | > 1000 µg/mL | 175 µg/mL (≈ 611 µM) | 275 µg/mL (≈ 960 µM) | COc1cc(C(C)C)c2cc(C)c(OC)c3c2c1C(=O)O3
